Test results: BindingDB's records for doi:10.1016/j.bmcl.2019.02.034 (Wroclaw University of Technology, 2019)
Where a SMILES comes first, the peptide text is derived from it. The star is where a group is joined. X1 = CC(C)CC(CP(=O)(O)[C@@H](N)CCc1ccccc1)C(=O)*

Biological target: Leucyl-cystinyl aminopeptidase (Homo sapiens) (UniProt Q9UIQ6)
Test: Inhibition of human IRAP using L-leucine 7-amido-4-methyl coumarin substrate by microplate fluorescence reader based assay

Sequence of Leucyl-cystinyl aminopeptidase (Homo sapiens) (Q9UIQ6 whole entry, looked up): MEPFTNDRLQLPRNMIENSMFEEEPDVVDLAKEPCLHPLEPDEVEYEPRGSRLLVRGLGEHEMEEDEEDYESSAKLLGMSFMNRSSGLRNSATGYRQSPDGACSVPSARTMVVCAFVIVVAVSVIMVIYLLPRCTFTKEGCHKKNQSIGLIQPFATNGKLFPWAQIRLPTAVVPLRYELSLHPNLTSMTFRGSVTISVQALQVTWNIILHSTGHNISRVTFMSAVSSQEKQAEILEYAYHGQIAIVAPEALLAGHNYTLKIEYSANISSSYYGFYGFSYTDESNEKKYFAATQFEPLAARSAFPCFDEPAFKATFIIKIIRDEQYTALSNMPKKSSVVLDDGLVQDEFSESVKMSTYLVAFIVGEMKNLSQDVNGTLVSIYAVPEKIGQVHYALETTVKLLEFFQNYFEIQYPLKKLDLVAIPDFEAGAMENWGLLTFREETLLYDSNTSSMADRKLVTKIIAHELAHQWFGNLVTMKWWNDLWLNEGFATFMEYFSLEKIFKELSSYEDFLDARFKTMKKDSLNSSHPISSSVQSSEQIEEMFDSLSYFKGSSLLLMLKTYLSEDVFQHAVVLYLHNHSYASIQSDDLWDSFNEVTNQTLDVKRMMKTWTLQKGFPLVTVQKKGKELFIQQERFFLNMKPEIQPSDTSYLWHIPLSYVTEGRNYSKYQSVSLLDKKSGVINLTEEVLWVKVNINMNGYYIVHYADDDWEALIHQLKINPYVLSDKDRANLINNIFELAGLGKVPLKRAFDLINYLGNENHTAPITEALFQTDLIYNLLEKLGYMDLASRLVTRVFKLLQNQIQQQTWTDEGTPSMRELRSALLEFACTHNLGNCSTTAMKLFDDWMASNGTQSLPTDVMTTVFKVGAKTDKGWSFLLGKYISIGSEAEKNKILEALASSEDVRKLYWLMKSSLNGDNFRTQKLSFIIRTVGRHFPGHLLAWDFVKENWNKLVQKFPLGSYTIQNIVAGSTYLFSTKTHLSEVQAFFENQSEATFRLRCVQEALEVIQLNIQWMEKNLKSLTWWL

IC50	SMILES
2 nM	C#CC[C@H](CP(=O)(O)[C@@H](N)CCc1ccccc1)C(=O)N[C@@H](Cc1ccccc1)C(N)=O
32 nM	NC(=O)[C@H](Cc1ccccc1)NC(=O)[C@H](CCC(c1ccccc1)c1ccccc1)CP(=O)(O)[C@@H](N)CCc1ccccc1

SMILES	IC50
CC(C)CC(CP(=O)(O)[C@@H](N)CCc1ccccc1)C(=O)N[C@@H](CCCCN)C(=O)N[C@@H](Cc1cnc[nH]1)C(=O)N[C@@H](Cc1cnc[nH]1)C(=O)N[C@@H](C)C(=O)N[C@@H](Cc1ccccc1)C(=O)N[C@@H](CO)C(=O)N[C@@H](Cc1ccccc1)C(=O)N[C@@H](CCCCN)C(N)=O (stereo partly drawn) (X1-KHHAFSFK-NH2)	7.7 nM
